Assay results: US4578489A (priority 1982, dated 1986)
Where two headings read alike, the source gives them in different places.

How the values were obtained:
Type in all cases: cell-based
Aspergillus niger = assay: Minimum inhibitory concentration against fungi, agar incorporation test, strain K; conditions: malt extract/agar
Description: (§1) The invention is carried out using the known agar incorporation test in the following fungi:
(§2) in a malt extract/agar (Merck). Inhibition is effected by adding sufficient of each of the various compounds to give final concentrations in the agar of 2, 5, 10, 50 and 100 mg/liter. The concentrations (mg/liters) required to inhibit the growth of the fungi (starting from traces of fungi added dropwise) are illustrated in Table 3.

Candida albicans = assay: Minimum inhibitory concentration against fungi, agar incorporation test, strain P; conditions: malt extract/agar
Description: as §1, §2

Chlorella vulgaris = assay: Action against algae: Chlorella vulgaris; parameters: key: --: no growth on the agar, 3 ppm have destroyed the algae in 6 hours; conditions: 3 mg/liter; for Growth on the agar (algae-destroying action): 6 hours exposure, 14 days incubation; for Growth in the medium (growth inhibition): 14 days
Description: Cultures of Chlorella vulgaris which had been grown for 14 days in algae nutrient media are diluted in the ratio 1/200 in the algae nutrient medium. Each of the compounds listed in Table 1 is then added in such an amount as to give a final concentration of 3 mg/liter. After incubating for 6 hours, 10 μl of each culture are withdrawn and added dropwise to algae/agar in order to determine the destructive action. After the cultures have incubated for 14 days under illumination (14 hours of light and 10 hours of darkness, alternately), the growth in the algae medium (determination of growth inhibition) and on the algae/agar (determination of algae-destroying action) is assessed visually.

Chaetomium globosum = assay: Minimum inhibitory concentration against fungi, agar incorporation test, strain S; conditions: malt extract/agar
Description: as §1, §2

Alternaria alternata = assay: Minimum inhibitory concentration against fungi, agar incorporation test, strain N; conditions: malt extract/agar
Description: as §1, §2

Endomyces geotrichum = assay: Minimum inhibitory concentration against fungi, agar incorporation test, strain Q; conditions: malt extract/agar
Description: as §1, §2

[1] = test system: mixed culture of bacteria; parameters: key: +: growth, no destruction; (+): growth less than that of control (>10 colonies), slight destruction; (-): slight growth (1-10 colonies); -: no growth, destruction
Penicillium funiculosum = assay: Minimum inhibitory concentration against fungi, agar incorporation test, strain M; conditions: malt extract/agar
Description: as §1
(M) Penicillium funiculosum
as §2

Aureobasidium pullulans = assay: Minimum inhibitory concentration against fungi, agar incorporation test, strain R; conditions: malt extract/agar
Description: as §1
(R) Aureobasidium pullulans
as §2

Aspergillus phoenicis = assay: Minimum inhibitory concentration against fungi, agar incorporation test, strain L; conditions: malt extract/agar
Description: as §1
(L) Aspergillus phoenicis
as §2

[2] = test system: Cladosporium cladosporioides; assay: Minimum inhibitory concentration against fungi, agar incorporation test, strain O; conditions: malt extract/agar
Description: as §1
(O) Cladosporium cladosporioides
as §2

Bacillus subtilis = assay: Minimum inhibitory concentration against bacteria, strain F; conditions: 24 hours at 30° C.; tested at 100 and 300 mg/liter
Description: (§3) Overnight cultures, grown in Caso peptone bouillon (Merck) of the various strains of bacteria: (A) Proteus vulgaris, (B) Pseudomonas aeruginosa, (C) Enterobacter aerogenes, (D) Serratia marcencens, (E) Alcaligenes denitrificans and (F) Bacillus subtilis are each diluted in a ratio of 1/1000 in saline solution. Sufficient of the suspensions is put into Caso peptone bouillon to dilute the bacteria again in the ratio of 1/1000. Each of the compounds listed in Table 1 is then added in amounts of 100 and 300 mg/liter. After being incubated for 24 hours at 30° C. in a shaking waterbath, the turbidity of the samples is evaluated.

Pseudomonas aeruginosa = assay: Minimum inhibitory concentration against bacteria, strain B; conditions: 24 hours at 30° C.; tested at 100 and 300 mg/liter
Description: as §3

Serratia marcencens = assay: Minimum inhibitory concentration against bacteria, strain D; conditions: 24 hours at 30° C.; tested at 100 and 300 mg/liter
Description: as §3

Proteus vulgaris = assay: Minimum inhibitory concentration against bacteria, strain A; conditions: 24 hours at 30° C.; tested at 100 and 300 mg/liter
Description: as §3

[3] = test system: Alcaligenes denitrificans; assay: Minimum inhibitory concentration against bacteria, strain E; conditions: 24 hours at 30° C.; tested at 100 and 300 mg/liter
Description: as §3

Enterobacter aerogenes = assay: Minimum inhibitory concentration against bacteria, strain C; conditions: 24 hours at 30° C.; tested at 100 and 300 mg/liter
Description: as §3

Row | SMILES | MIC against fungi, strain K (Aspergillus niger) | MIC against fungi, strain P (Candida albicans) | Growth on the agar (algae-destroying action) (Chlorella vulgaris) | Growth in the medium (growth inhibition) (Chlorella vulgaris) | MIC against fungi, strain S (Chaetomium globosum) | MIC against fungi, strain N (Alternaria alternata) | MIC against fungi, strain Q (Endomyces geotrichum) | MIC against fungi, strain M (Penicillium funiculosum) | MIC against fungi, strain R (Aureobasidium pullulans) | MIC against fungi, strain L (Aspergillus phoenicis) | MIC against fungi, strain O [2] | MIC against bacteria, strain F (Bacillus subtilis) | MIC against bacteria, strain B (Pseudomonas aeruginosa) | MIC against bacteria, strain D (Serratia marcencens) | MIC against bacteria, strain A (Proteus vulgaris) | MIC against bacteria, strain E [3] | MIC against bacteria, strain C (Enterobacter aerogenes) | further results
1 | CCCCCCCCCCCCCCCC[N+](C)(C)C.CCC[CH2][Sn-]([Cl])([Cl])([CH2]CCC)[CH2]CCC [Example 17, (CH3)3 NC16 H33 / Tributyldichloro] | 2 µg/mL | 5 µg/mL | -- | -- | 2 µg/mL | 2 µg/mL | 10 µg/mL | 5 µg/mL | 2 µg/mL | 2 µg/mL | 2 µg/mL |  |  |  |  |  |  | Growth (destruction of a mixed culture of bacteria) ([1]; 5 mg/l, culture diluted 1/1000 in Tyrode): +; Growth (destruction of a mixed culture of bacteria) ([1]; 5 mg/l, culture diluted 1/10000 in Tyrode): (+) (growth less than that of control (>10 colonies), slight destruction); Growth (destruction of a mixed culture of bacteria) ([1]; 10 mg/l, culture diluted 1/1000 in Tyrode): +; Growth (destruction of a mixed culture of bacteria) ([1]; 10 mg/l, culture diluted 1/10000 in Tyrode): (+) (growth less than that of control (>10 colonies), slight destruction); Growth (destruction of a mixed culture of bacteria) ([1]; 30 mg/l, culture diluted 1/1000 in Tyrode): (+) (growth less than that of control (>10 colonies), slight destruction); Growth (destruction of a mixed culture of bacteria) ([1]; 30 mg/l, culture diluted 1/10000 in Tyrode): -; Growth (destruction of a mixed culture of bacteria) ([1]; 60 mg/l, culture diluted 1/1000 in Tyrode): -; Growth (destruction of a mixed culture of bacteria) ([1]; 60 mg/l, culture diluted 1/10000 in Tyrode): -; Growth (destruction of a mixed culture of bacteria) ([1]; 100 mg/l, culture diluted 1/1000 in Tyrode): -; Growth (destruction of a mixed culture of bacteria) ([1]; 100 mg/l, culture diluted 1/10000 in Tyrode): -
2 | CCCCCCCCCCCCC(=O)NCCC[N+](C)(C)O.CCC[CH2][Sn-]([Cl])([Cl])([CH2]CCC)[CH2]CCC [Example 29, (C12 H25 CO)NH(CH2)3 N(OH)(CH3)2 / Tributyldichloro] | ≤ 5 µg/mL | ≤ 5 µg/mL | -- | -- | ≤ 5 µg/mL | ≤ 5 µg/mL | 10 µg/mL | 10 µg/mL | ≤ 5 µg/mL | ≤ 5 µg/mL | ≤ 5 µg/mL | 100 µg/mL | 100 µg/mL | > 300 µg/mL | 100 µg/mL | 300 µg/mL | > 300 µg/mL | 
3 | CCCCCCCCCCCC[N+](C)(C)O.CCC[CH2][Sn-]([Cl])([Cl])([CH2]CCC)[CH2]CCC [Example 14, (CH3)2 N(OH)C12 H25 / Tributyldichloro] | 2 µg/mL | 5 µg/mL | -- | -- | 2 µg/mL | 2 µg/mL | 10 µg/mL | 5 µg/mL | 2 µg/mL | 2 µg/mL | 2 µg/mL | 100 µg/mL | 100 µg/mL | 300 µg/mL | 100 µg/mL | 300 µg/mL | > 300 µg/mL | 
